Results reported in patent publication US5135955A, “Propanamine derivatives” (Eli Lilly and Company, priority 1989, dated 1992).
Structures can show the parent of a compound that is named as a salt.

Assays:
[1] = system: Candida albicans A26; experiment: in vitro antifungal activity, Candida albicans (MIC); assay type: cell-based; settings: 35° C., 48 hours, RPMI 1640 plus 10% fetal calf serum, 95-100% inhibition of growth; for MIC: read-out: minimum inhibitory concentration (MIC), C.a.
Description: (§1) The antifungal activity was assayed in vitro against Candida abicans A26, Trichophyton mentagrophytes CDC27, and Aspergillus flavus M152. The inocula, previously frozen under liquid nitrogen in a lactose, glycerol and water solution, were standardized by counting spores with a hemocytometer. Final concentrations (C. albicans, 1×10^5 cells/m; T. mentagrophytes, 1×10^6 cells/ml; A. flavus, 1×10^5 cells/ml) in RPMI 1640 plus 10% fetal calf serum were added to each of the 96 wells of a microtiter plate (100 μl/well).The compounds to be tested were solubilized in either water or ethanol and added to the microtiter wells in serial dilutions to give final concentrations in the range 0.039-20 μg/ml. The plates were incubated at 35° C. for 48 hours. The minimum inhibitory concentration (MIC) values were determined as the highest dilution showing 95-100% inhibition of growth.
(§2) ^a Minimum inhibitory concentration expressed in μg/ml
^b C.a. means Candida albicans A26

[2] = system: Aspergillus flavus M152; experiment: in vitro antifungal activity, Aspergillus flavus (MIC); assay type: cell-based; settings: 35° C., 48 hours, RPMI 1640 plus 10% fetal calf serum, 95-100% inhibition of growth; for MIC: read-out: minimum inhibitory concentration (MIC), A.f.
Description: as §1, §2
^c A.f. means Aspergillus flavus M152

[3] = system: Trichophyton mentagrophytes CDC27; experiment: in vitro antifungal activity, Trichophyton mentagrophytes (MIC); assay type: cell-based; settings: 35° C., 48 hours, RPMI 1640 plus 10% fetal calf serum, 95-100% inhibition of growth; for MIC: read-out: minimum inhibitory concentration (MIC), T.m.
Description: as §1, §2
^d T.m. means Trichophyton mentagrophytes CDC27

[4] = system: thromboplastin clotting time in human plasma; experiment: prothrombin time test (thromboplastin clotting time in human plasma); assay type: biochemical; settings: 37° C., human plasma
Description: Briefly, to 0.1 ml of each of human plasma, normal saline and thromboplastin was added 0.03 ml of the test compound of the present invention (2 mg/ml in 50 percent methanol). The clotting time was measured at 37° C. with a Fibrometer.
^a Expressed in seconds
^b Concentration of compound tested in micrograms per milliliter of […]

[5] = 11 micrograms per milliliter of plasma
[6] = 22 micrograms per milliliter of plasma
[7] = 45 micrograms per milliliter of plasma
[8] = 90 micrograms per milliliter of plasma
[9] = 180 micrograms per milliliter of plasma
[10] = 11 micrograms per milliliter of plasma, hydrochloride
[11] = 22 micrograms per milliliter of plasma, hydrochloride
[12] = 45 micrograms per milliliter of plasma, hydrochloride
[13] = 90 micrograms per milliliter of plasma, hydrochloride

Compound	MIC [1] [µg/mL]	MIC [2] [µg/mL]	MIC [3] [µg/mL]	plasma prothrombin time [4, 7] [s]	plasma prothrombin time [4, 8] [s]	plasma prothrombin time [4, 9] [s]	also measured
4-(2-Butenyloxy)-N,N,α-trimethylbenzenepropanamine hydrochloride [Example 56]							minimum inhibitory concentration (MIC), C.a. [1]: 0.625 µg/mL; minimum inhibitory concentration (MIC), A.f. [2]: 5 µg/mL; minimum inhibitory concentration (MIC), T.m. [3]: 0.312 µg/mL
CC(CCc1ccc(OCCC2CCCCC2)cc1)NCCN(C)C (centres unmarked) [Example 46, N'-[3-[4-(2-Cyclohexylethoxy)phenyl]-1-methylpropyl]-N,N-dimethyl-1,2-ethanediamine dihydrochloride]	10	20	10				
CC(CCc1ccc(OC2CCCC2)cc1)NCCN1CCOCC1 (centres unmarked) [Example 47, N-[3-[4-(Cyclopentyloxy)phenyl]-1-methylpropyl]-4-morpholineethanamine dihydrochloride]	10	10	20				
CCCCCCCOc1ccc(CCC(C)NCCN(C)C)cc1 (centres unmarked) [Example 49, N'-[3-[4-(Heptyloxy)phenyl]-1-methylpropyl]-N,N-dimethyl-1,2-ethanediamine dihydrochloride]				36	167	260	plasma prothrombin time [4, 5]: 22 s; plasma prothrombin time [4, 6]: 34 s
CCCCCCCCCCOc1ccc(CCC(C)N)cc1 (stereo not drawn) [Example 50, 4-(Decyloxy)-α-methylbenzenepropanamine hydrochloride]				21	36	100	
CCCCCCCOc1ccc(CCC(C)N)cc1 (stereo not drawn) [Example 51, 4-(Heptyloxy)-α-methylbenzenepropanamine hydrochloride]				25	52	> 300	
CCCCCCCCCCCCOc1ccc(CCC(C)NCCN(C)C)cc1 (centres unmarked) [Example 52, N'-[3-[4-(Dodecyloxy)phenyl]-1-methylpropyl]-N,N-dimethyl-1,2-ethanediaminedihydrochloride]					20	87	
CCCCCCCCCOc1ccc(CCC(C)NCCN2CCOCC2)cc1 (centres unmarked) [Example 53, N-[1-Methyl-3-[4-(nonyloxy)phenyl]propyl]-4-morpholineethanamine dihydrochloride]				23	53	240	
CCCCCCCCCOc1ccc(CCC(C)NCCN(C)C)cc1 (centres unmarked) [Example 54, N,N-Dimethyl-N'-[1-methyl-3-[4-(nonyloxy)phenyl]propyl]-1,2-ethanediamine dihydrochloride]				37	99	> 300	
CSCCOc1ccc(CCC(C)N(C)C)cc1 (stereo not drawn) [Example 57, 4-(2-Methylthioethoxy)-N,N,α-trimethylbenzenepropanamine hydrochloride]	1.25	20	0.312				
CC(CCc1ccc(OCCN(C)C)cc1)N(C)C (stereo not drawn) [Example 58, 4-[2-(Dimethylamino)ethoxy]-N,N,α-trimethylbenzenepropylamine dihydrochloride]	1.25	20	10				
CC(CCc1ccc(OCCCC#N)cc1)N(C)C (centres unmarked) [Example 59, 4-8 4-[3-(Dimethylamino)butyl]phenoxy]butanenitrile hydrochloride]	2.5	20	20				
CC(CCc1ccc(OCC(=O)C(C)(C)C)cc1)N(C)C (centres unmarked) [Example 60, 3,3-Dimethyl-1-[4-[3-(dimethylamino)-1-butyl]phenoxy]-2-butenone hydrochloride]	10	10	0.625				
CC(CCc1ccc(OCCn2ccnc2)cc1)N(C)C (stereo not drawn) [Example 61, N,N,α-Trimethyl-4-[2-(1H-imidazol-1-yl)ethoxy]benzenepropanamine]	5	> 20	10				
CC(CCc1ccc(OCCn2cncn2)cc1)N(C)C (stereo not drawn) [Example 62, N,N,α-Trimethyl-4-[2-(1H-1,2,4-triazol-1-yl)ethoxy]benzenepropanamine]	10	20	10				
CC(CCc1ccc(OCc2cccc(F)c2)cc1)N(C)C (stereo not drawn) [Example 63, N,N,α-Trimethyl-4-[(3-fluorophenyl)methoxy]benzenepropanamine hydrochloride]	0.625	5	1.25				
CC(CCc1ccc(OCc2ccc(Cl)cc2Cl)cc1)N(C)C (stereo not drawn) [Example 64, N,N,α-Trimethyl-4-(2,4-dichlorophenyl)methoxy]benzenepropanamine hydrochloride]	20	5	5				
CC(CCc1ccc(OCc2ccc(C(F)(F)F)cc2)cc1)N(C)C (stereo not drawn) [Example 65, N,N,α-Trimethyl-4-[[4-(trifluoromethyl)phenyl]methoxy]-benzenepropanamine hydrochloride]	20	10	5				
CC(CCc1ccc(OS(=O)(=O)c2ccccc2)cc1)N(C)C (centres unmarked) [Example 66, Benzenesulfonic acid 4-[3-(dimethylamino)butyl]phenylester]	10	20	5				
CC(CCc1ccc(OCCC(C)(C)C)cc1)N(C)C.Cl (centres unmarked) [Example 75, 4-(3,3-Dimethylbutoxy)-N,N,αtrimethylbenzenepropanamine hydrochloride]						90	plasma prothrombin time [4, 10]: 18 s; plasma prothrombin time [4, 11]: 23 s; plasma prothrombin time [4, 12]: 32 s; plasma prothrombin time [4, 13]: 52 s
COCCOc1ccc(CCC(C)N(C)C)cc1.Cl (stereo not drawn) [Example 76, 4-(2-Methoxyethoxy)-N,N,α-trimethylbenzenepropanamine hydrochloride]				17	17	18	
CCCCOc1ccc(CCC(C)N2CCCC2)cc1.Cl (centres unmarked) [Example 77, 1-[3-[4-(Butoxy)phenyl]-1-methylpropyl]-pyrrolidine hydrochloride]				23	24	53	plasma prothrombin time [4, 5]: 15 s; plasma prothrombin time [4, 6]: 16 s
CCCCOc1ccc(CC(C)CN(C)C)cc1.Cl (stereo not drawn) [Example 78, 4-Butoxy-N,N,β-trimethylbenzenepropanamine hydrochloride]				23	31	67	
CC(CCc1ccc(OCCC(C)(C)C)cc1)N(C)C.Cl (stereo not drawn) [Example 79, 4-(3,3-Dimethylbutoxy)-N,N,α-trimethylbenzenepropanamine hydrochloride]						90	plasma prothrombin time [4, 10]: 19 s; plasma prothrombin time [4, 11]: 21 s; plasma prothrombin time [4, 12]: 31 s; plasma prothrombin time [4, 13]: 55 s
CC(CCc1ccc(OCC2CCCC2)cc1)N(C)C (stereo not drawn) [Example 80, 4-Cyclopentylmethoxy-N,N-α-trimethylbenzenepropanamine hydrochloride]							plasma prothrombin time [4, 5]: 17 s; plasma prothrombin time [4, 6]: 19 s; plasma prothrombin time [4, 12]: 24 s; plasma prothrombin time [4, 13]: 43 s; plasma prothrombin time ([4]; 180 micrograms per milliliter of plasma, hydrochloride): 88 s
CC(CCc1ccc(OCC2CCCC2)cc1)N(C)C (stereo not drawn) [Example 81, 4-Cyclopentylmethoxy-N,N-α-trimethylbenzenepropanamine]				20	25	47	
CC(CCc1ccc(OCc2ccc(F)cc2)cc1)N(C)C.Cl (stereo not drawn) [Example 82, 4-[(4-Fluorophenyl)methoxy]-N,N,α-trimethylbenzenepropanamine hydrochloride]				24	29	75	plasma prothrombin time [4, 5]: 18 s; plasma prothrombin time [4, 6]: 19 s
CC(CCc1ccc(C(C)(C)C)cc1)N(C)C.Cl (stereo not drawn) [Example 83, 4-(1,1-Dimethylethyl)-N,N,α-trimethylbenzenepropanamine hydrochloride]				21	26	37	
